Values quoted from earlier work, collected in US12064440B2, “Ophthalmic gel compositions of bimatoprost and timolol and associated methods” (Somerset Therapeutics, LLC, priority 2022, dated 2024).

Conditions: under certain conditions

For CCNC(=O)CCC/C=C\C[C@@H]1[C@@H](/C=C/[C@@H](O)CCc2ccccc2)[C@H](O)C[C@@H]1O [bimatoprost, (Z)-7-[(1R, 2R, 3R, 5S)-3,5-Dihydroxy-2-[(1E, 3S)-3-hydroxy-5-phenyl-1-pentenyl]cyclopentyl]-5-N-ethylheptenamid], which “active pharmaceutical ingredient (API) stability” value (shortened to “active pharmaceutical ingredient”) is on record?
The value was “remain stable”.

With CC(C)OC(=O)CCC/C=C\C[C@@H]1[C@@H](CC[C@@H](O)CCc2ccccc2)[C@H](O)C[C@@H]1O [latanoprost] as the compound, how does the “active pharmaceutical ingredient” value read?
The value was “degradation”.

For CC(C)OC(=O)CCC/C=C\C[C@@H]1[C@@H](/C=C/[C@@H](O)COc2cccc(C(F)(F)F)c2)[C@H](O)C[C@@H]1O [travoprost], which “active pharmaceutical ingredient” value is on record?
Its value is “degradation”.
